What was measured:
[1] = system: PDT-induced immunosuppression; assay: contact hypersensitivity (CHS) to DNFB after PDT, ear thickness; format: in vivo, mice; conditions: wild-type mice
Excerpt: Five days later the mice underwent sensitization with the neoantigen DNFB. To test for local immunosuppression, DNFB was applied to the PDT-treated area. To test for systemic immunosuppression, the DNFB was applied to back skin at least 2 cm away from the PDT-treated area. Nine days later the mice underwent elicitation reactions to DNFB by application to one ear, with vehicle applied to the other ear. One day later the ear thickness was obtained as a measure of CHS reaction and compared to pre-treatment and vehicle-treated values. Some mice were treated with intraperitoneal CPAF as a positive control for systemic immunosuppression.
For the data shown in FIG. 20, wild-type mice either were injected intraperitoneally with 250 ng CPAF as a positive control for immunosuppression, underwent PDT using 10 J/cm^2 blue light, or received no treatment (SHAM). […] Five days later the mice underwent sensitization with DNFB in PDT-treated (local immunosuppression) or non-PDT-treated skin (systemic immunosuppression). Nine days later the mice underwent elicitation reactions to ears with ear thickness measured at 24 hours. For the data shown in FIG. 21, wild type and aSMase-deficient (Smpd1−/−) mice underwent treatment with CPAF or PDT followed by DNFB sensitization/elicitation reactions as in FIG. 20. The data are mean±SD values. * Denotes statistically significant (P<0.05) changes from sham treatment values using two-way ANOVA.

[2] = system: HaCaT keratinocytes; assay: PDT (5-ALA + blue light) MVP release in HaCaT keratinocytes; format: cell-based, human; set-up: PDT-induced MVP release: dose or concentration left out as unconfirmed; conditions: HaCaT keratinocytes, imipramine added immediately after PDT, supernatants 4 h
Description: PDT results in acute cellular destruction and inflammation and photosensitivity, as well as delayed immunosuppression. […] Thus, it was of further interest whether experimental PDT of HaCaT keratinocytes generated MVP in vitro. To that end, HaCaT cells were pretreated with 5-ALA alone, or blue light alone, or a 4 hour incubation of 5-ALA in the dark followed by various fluences of blue light, and MVP were measured in the supernatants at 4 hours post blue light. 100 nM CPAF and TPA were used as positive controls for MVP release.
For the data shown in FIG. 14, HaCaT keratinocytes were treated with sham (no treatment), 0.1% ethanol vehicle control (VEH), 100 nM TPA, 100 nM CPAF, 1 mM 5-ALA for 4 hours, or 5-ALA followed by various fluences (2.5-20 J/cm^2) of blue light or blue light alone. Levels of MVPs released into supernatants were measured at 4 hours. […] For the data shown in FIG. 15, human skin explants were treated with sham, 100 μL vehicle (90% ethanol+10% DMSO) (VEH), 1 μM TPA, 1 µM CPAF, 1 mM 5-ALA for 4 hours, blue light or 5-ALA+blue light at 20 J/cm^2. After four hours, duplicate 6-mm punch biopsies were obtained, weighed, and MVPs were measured. The data are the mean±SE from 3-4 separate experiments conducted in duplicate. * Denotes statistically significant (P <0.05) changes from sham values.
Supernatants were collected at 4 hours and MVP measured. The data are the mean±SE MVP fold change from sham-treated values. For the data shown in FIG. 17, human skin explants were treated as in FIG. 15, with the exception that in some experiments 100 μL of 5 mM IMIP was added post-PDT. MVP were measured in duplicate 6-mm punch biopsies obtained 4 hours post-treatment.

[3] = system: UVB-induced erythema; assay: UVB-induced skin erythema (Mexameter) in wild-type and XPA KO mice; format: in vivo; conditions: WT and XPA KO mice, 5 kJ/m^2 UVB, 100 μL 500 μM topical immediately after, 4 h; effect most noted in XPA KO
Description: Erythema was measured by a Mexameter® device (Courage+Khazaka electronic GmbH, Cologne, Germany) before treatment and after 4 hours of treatment. […] UVB-induced skin inflammation involves many cytokines including interleukin-6 (IL-6) and tumor necrosis factor-alpha (TNFα).
Groups of 6-8 mice underwent erythema measurements with a Mexameter® device before irradiation with various fluences (1.0, 2.5, and 5.0 kJ/m^2) of UVB or no UVB (sham), and four hours later erythema was measured to determine the cutaneous erythema and cytokine responses of UVB irradiation on wild-type vs XPA KO mice. Similarly, triplicate skin biopsies were obtained and mRNA isolated, and quantitative reverse transcription polymerase chain reaction (qRT-PCR) used to quantify mRNA levels of cytokines TNF ? and IL-6. The housekeeping gene GAPDH was used as control. […] The data is shown as the mean±S.E. of fold change in baseline erythema levels. * Denotes statistically significant (P<0.05) differences between UVB- and sham-treated mice. #Denotes statistically significant (P<0.05) differences between XPA KO and wild-type erythema responses.
The data is shown as the mean±S.E. of fold change in baseline erythema levels. * Denotes statistically significant (P<0.05) differences between UVB- and sham-treated mice

[4] = system: UVB-induced MVP release; assay: MVP release in skin and plasma of wild-type and XPA KO mice after UVB or topical agonists; format: in vivo; conditions: WT and XPA KO mice, 5 kJ/m^2 UVB, 500 μM imipramine topical immediately post-UVB, 4 h
Excerpt: The enzyme aSMase is also known to generate MVP in response to many stressors such as UVB via activation of PAFR. Yet other stimuli such as in response to a phorbol ester (TPA) are independent of the PAFR. Therefore, administration of inhibitors of aSMase may block UVB-MVP release in XPA deficient model, as well as in other situations where MVP release is independent of the PAFR.
Groups of 8-13 wild-type (C57BL/6) and XPA KO mice received no treatment (NT) or 1 KJ/m^2, 2.5 kJ/m^2, or 5 KJ/m^2 of UVB to their dorsal back skin. In some experiments, mice were treated with topical application of the PAFR agonist carbamoyl-PAF (CPAF; 50 μL of 100 μM) or the phorbol ester 12-O-tetradecanoylphorbol-13-acetate (TPA; 50 μL of 100 μM) in 90% ethanol: 10% DMSO vehicle. For the data in FIG. 2, triplicate skin biopsies were obtained and weighed four hours post-treatment, and MVP was measured. […] For the data in FIG. 3, plasma was obtained and MVP was measured four hours post-treatment. […] Data are the mean±S.E. fold change of MVP count. Groups were compared using One-Way ANOVA and Tukey's post-hoc test. Differences in samples were considered significant if the P value was less than 0.05. […]
For the data shown in FIG. 4, triplicate skin biopsies were obtained and MVP was measured. For the data shown in FIG. 5, plasma was obtained and MVP was measured. […]

[5] = hairless mice, effect of propylene glycol; cited from earlier work

In the case of `CN(C)CCCN1c2ccccc2CCc2ccccc21` [Imipramine], the “CPAF-induced systemic immunosuppression (CHS to DNFB)” value ([1]; 250 ng CPAF intraperitoneal, topical imipramine) was “did not affect the immunosuppressive effects of CPAF”, the “PDT-induced local immunosuppression (CHS to DNFB)” value ([1]; PDT 10 J/cm^2, 100 μL of 5% imipramine topical post-PDT, DNFB on PDT-treated skin) was “inhibited both local and systemic immunosuppression” and the “PDT-induced systemic immunosuppression (CHS to DNFB)” value ([1]; PDT 10 J/cm^2, 100 μL of 5% imipramine topical post-PDT, DNFB on non-PDT-treated skin) was “inhibited both local and systemic immunosuppression”. The “PDT-induced MVP release” value [2] was “blocked PDT-induced MVP release”, the UVB-induced erythema response [3] was “blocked the erythema responses” and the “UVB-induced MVP in plasma” value [4] was “blocked MVP accumulation”. The “UVB-induced MVP in skin” value [4] was “blocked MVP accumulation in skin” and the “absorption with propylene glycol” value [5] was “enhances absorption”.

Reference: patent US20240245703A1, “TOPICAL APPLICATION OF AGENTS TO REDUCE SUN SENSITIVITY AND IMPROVE TOPICAL PHOTODYNAMIC THERAPY” (Wright State University, priority 2021, published 2024)
